This passage reports IC50 results from ChEMBL document CHEMBL5352436, “Triterpenoid pyrazines and pyridines - Synthesis, cytotoxicity, mechanism of action, preparation of prodrugs” (Eur J Med Chem, 2022).

Each structure is given as a SMILES string.

A short description of series [1]: Cytotoxicity against human K562-Tax cells assessed as reduction in cell viability incubated for 72 hrs by MTS assay. The format is functional, cell-based. A general note: Tetrazolium assays rely on reduction of a dye to a coloured formazan, in cell work by metabolically active cells.
Series [2] is described as follows: Cytotoxicity against human HCT116-p53-null cells assessed as reduction in cell viability incubated for 72 hrs by MTS assay. The format is functional, cell-based.
Series [3] relates to K562. Kind of series: Cytotoxicity against human K562 cells assessed as reduction in cell viability incubated for 72 hrs by MTS assay. The following applies: K562, 72 h. The format is functional, cell-based.
Series [4] is described as follows: Cytotoxicity against human MRC5 cells assessed as reduction in cell viability incubated for 72 hrs by MTS assay. The format is toxicity, cell-based.
Series [5] in a line: Cytotoxicity against human BJ cells assessed as reduction in cell viability incubated for 72 hrs by MTS assay. It counts as toxicity, cell-based.
The subject of series [6] is A549. Kind of series: Cytotoxicity against human A549 cells assessed as reduction in cell viability incubated for 72 hrs by MTS assay. The format is functional, cell-based. The following applies: A549, 72 h.
The subject of series [7] is CEM-DNR. Kind of series: Cytotoxicity against human CEM-DNR cells assessed as reduction in cell viability incubated for 72 hrs by MTS assay. The format is functional, cell-based.
The test system of series [8] is HCT-116. Kind of series: Cytotoxicity against human HCT-116 cells assessed as reduction in cell viability incubated for 72 hrs by MTS assay. The format is functional, cell-based. To be noted: HCT-116, 72 h.
The subject of series [9] is CCRF-CEM. Kind of series: Cytotoxicity against human CCRF-CEM cells assessed as reduction in cell viability incubated for 72 hrs by MTS assay. The format is functional, cell-based.
The subject of series [10] is U2OS. The series is described as follows: Cytotoxicity against human U2OS cells assessed as reduction in cell viability incubated for 72 hrs by MTS assay. The format is functional, cell-based.

In general, IC50 refers to the concentration that gives 50% inhibition. For the compound `CC1(C)CC[C@]23CC[C@]4(C)[C@H](CC[C@@H]5[C@@]6(C)CCC(=O)C(C)(C)[C@@H]6CC[C@]54C)[C@H]2[C@H]1OC3`, the IC50 in [1], in series [2], in series [3], in series [6], in [7] and in series [8] was over 50 µM in each case. For the same compound, the half-maximal inhibitory concentration (IC50) in series [9] and in series [10] was over 50 µM throughout. Further, the IC50 at 72 h in [4] and in series [5] was over 50 µM throughout.
For `C=C(C)[C@@H]1CC[C@]2(C(=O)O)CC[C@]3(C)[C@H](CC[C@@H]4[C@@]5(C)CCC(=O)C(C)(C)[C@@H]5CC[C@]43C)[C@@H]12` [BETUNOLIC ACID], the concentration for half-maximal inhibition (IC50) in [1] was 15 µM; in series [2], 49 µM; in series [7], 11 µM. Also, the IC50 at 72 h in [5] was 39 µM.
`CC1(C)CC[C@]2(C(=O)O)CC[C@]3(C)C(=CC[C@@H]4[C@@]5(C)Cc6cccnc6C(C)(C)[C@@H]5CC[C@]43C)[C@@H]2C1`: the IC50 was over 50 µM in [1]; over 50 µM in series [2]; 13 µM in series [3]; over 50 µM in [6]; over 50 µM in [7]; over 50 µM in series [8]. Besides, the half-maximal inhibitory concentration (IC50) in series [9] is 39 µM; in [10], over 50 µM. The IC50 at 72 h in [4] and in series [5] was over 50 µM each time.
For `CC1(C)CC[C@]23CC[C@]4(C)[C@H](CC[C@@H]5[C@@]6(C)Cc7nccnc7C(C)(C)[C@@H]6CC[C@]54C)[C@H]2[C@H]1OC3`, the half-maximal inhibitory concentration (IC50) in [1], in series [2], in series [3], in series [6], in [7] and in [8] was over 50 µM each time. In addition, the IC50 in series [9] and in series [10] was over 50 µM each time. Moreover, the half-inhibitory concentration (IC50) at 72 h in [4] and in series [5] was over 50 µM in each case.
As for `C#CCOC(=O)[C@]12CC[C@@H](C(=C)C=O)[C@@H]1[C@H]1CC[C@@H]3[C@@]4(C)CC[C@H](O)C(C)(C)[C@@H]4CC[C@@]3(C)[C@]1(C)CC2`, the IC50 stood at 1.3 µM in series [1]; 1.5 µM in [2]; 1.8 µM in series [3]; 1.3 µM in series [6]; 1.4 µM in series [7]; 1.7 µM in [8]. Moreover, the IC50 in [9] was 0.88 µM; in series [10], 1.6 µM. Moreover, the IC50 at 72 h turned out to be 1.7 µM in series [4] and 7.1 µM in series [5].
As for `C[C@H]1[C@H](C)CC[C@]2(C(=O)O)CC[C@]3(C)C(=CC[C@@H]4[C@@]5(C)Cc6nccnc6C(C)(C)[C@]5(C)CC[C@]43C)[C@H]12`, the IC50 in [1] was 44 µM; in series [2], over 50 µM; in series [3], over 50 µM; in series [6], over 50 µM; in series [7] it was 17 µM; in series [8], 50 µM. Besides, the concentration for half-maximal inhibition (IC50) in [9] is 19 µM; in [10], over 50 µM. Moreover, the IC50 at 72 h in [4] and in [5] was over 50 µM in each case.
As for `C=C(C)[C@@H]1CC[C@]2(C(=O)OCc3oc(=O)oc3C)CC[C@]3(C)[C@H](CC[C@@H]4[C@@]5(C)Cc6nccnc6C(C)(C)[C@@H]5CC[C@]43C)[C@@H]12`, the IC50 is 13 µM in series [1]; 49 µM in [2]; over 50 µM in [3]; 10 µM in series [6]; 0.49 µM in series [7]; 40 µM in series [8]. The IC50 in series [9] was found to be 3.6 µM; in series [10] it was 45 µM. The IC50 at 72 h in [4] and in [5] was over 50 µM in each case.
Regarding `CC1(C)C=C2[C@H]3CC[C@@H]4[C@@]5(C)Cc6nccnc6C(C)(C)[C@@H]5CC[C@@]4(C)[C@]3(C)CC[C@@]2(C(=O)O)CC1`, the IC50 is 25 µM in [1]; over 50 µM in series [2]; over 50 µM in series [3]; over 50 µM in series [6]; 29 µM in [7]; 40 µM in series [8]. Further, the IC50 in series [9] was 15 µM; in [10] it was over 50 µM. Also, the concentration for half-maximal inhibition (IC50) at 72 h in series [4] and in [5] was over 50 µM throughout.
For `CC1(C)CC[C@]23CC[C@]4(C)[C@H](CC[C@@H]5[C@@]6(C)Cc7cccnc7C(C)(C)[C@@H]6CC[C@]54C)[C@H]2[C@H]1OC3`, the IC50 in series [1], in series [2], in series [3], in series [6], in series [7] and in [8] was over 50 µM in each case. In addition, the concentration for half-maximal inhibition (IC50) in series [9] and in series [10] was over 50 µM throughout. In addition, the 50% inhibitory concentration (IC50) at 72 h in series [4] and in [5] was over 50 µM throughout.
Regarding `Cc1oc(=O)oc1COC(=O)[C@]12CC[C@@H](C(C)C)[C@@H]1[C@H]1CC[C@@H]3[C@@]4(C)Cc5nccnc5C(C)(C)[C@@H]4CC[C@@]3(C)[C@]1(C)CC2`, the IC50 is 12 µM in series [1]; 44 µM in series [2]; 0.026 µM in series [3]; 41 µM in series [6]; 50 µM in [7]; over 50 µM in series [8]. The results for the half-maximal inhibitory concentration (IC50) in [9] and in series [10] were 17 µM and 40 µM, respectively. The IC50 at 72 h in series [4] and in [5] was over 50 µM each time.
With `CC1=CC[C@]2(C(=O)O)CC[C@]3(C)[C@H](CC[C@@H]4[C@@]5(C)Cc6nccnc6C(C)(C)[C@@H]5CC[C@]43C)[C@H]2[C@@H]1C`, the IC50 in series [1] is 10 µM; in series [2], 50 µM; in [3] it was 18 µM; in series [6], 44 µM; in series [7], 10 µM; in [8], 48 µM. The values for the IC50 in series [9] and in [10] were 7.2 µM and 46 µM, respectively. The IC50 at 72 h in series [4] and in [5] was over 50 µM throughout.
As for `CC1=CC[C@]2(C(=O)O)CC[C@]3(C)[C@H](CC[C@@H]4[C@@]5(C)CCC(=O)C(C)(C)[C@@H]5CC[C@]43C)[C@H]2[C@@H]1C`, the half-maximal inhibitory concentration (IC50) in [1] worked out at 28 µM; in [2], 35 µM; in [3], 8.5 µM; in [6], 24 µM; in [7] it was 11 µM; in series [8] it was 32 µM. Further, the results for the IC50 in [9] and in series [10] were 6.5 µM and 24 µM, respectively. The 50% inhibitory concentration (IC50) at 72 h in [4] came out at 33 µM; in series [5], 35 µM.
As to `CC1(C)C=C2[C@H]3CC[C@@H]4[C@@]5(C)CCC(=O)C(C)(C)[C@@H]5CC[C@@]4(C)[C@]3(C)CC[C@@]2(C(=O)O)CC1` [MORONIC ACID], the 50% inhibitory concentration (IC50) in [1] was 21 µM; in series [2], over 50 µM; in series [3], over 50 µM; in [6], 47 µM; in [7] it was 17 µM; in [8] it was 45 µM. The IC50 in series [9] was 17 µM; in series [10], over 50 µM. Further, the IC50 at 72 h in [4] and in series [5] was over 50 µM throughout.
For `C[C@H]1[C@H](C)CC[C@]2(C(=O)O)CC[C@]3(C)C(=CC[C@@H]4[C@@]5(C)CCC(=O)C(C)(C)[C@@H]5CC[C@]43C)[C@H]12` [URSONIC ACID], the IC50 in [1] was 27 µM; in series [2], over 50 µM; in [3], over 50 µM; in series [6], 50 µM; in series [7] it was 19 µM; in series [8], 47 µM. Also, the values for the concentration for half-maximal inhibition (IC50) in series [9] and in [10] were 16 µM and over 50 µM, respectively. In addition, the IC50 at 72 h in [4] and in series [5] was over 50 µM each time.
As to `CC1(C)CC[C@]2(C(=O)O)CC[C@]3(C)C(=CC[C@@H]4[C@@]5(C)CCC(=O)C(C)(C)[C@@H]5CC[C@]43C)[C@@H]2C1` [OLEANONIC ACID], the half-maximal inhibitory concentration (IC50) in series [1] is 21 µM; in series [2] it was over 50 µM; in series [3], over 50 µM; in series [7], 17 µM; in series [9] it was 9.5 µM. For the same compound, the IC50 at 72 h in series [4] and in [5] was over 50 µM throughout.
As to `CC1(C)C=C2[C@H]3CC[C@@H]4[C@@]5(C)Cc6cccnc6C(C)(C)[C@@H]5CC[C@@]4(C)[C@]3(C)CC[C@@]2(C(=O)O)CC1`, the half-maximal inhibitory concentration (IC50) in series [1] is 15 µM; in [2], over 50 µM; in [3], over 50 µM; in series [6], over 50 µM; in series [7], 14 µM; in series [8], 47 µM. Moreover, the results for the IC50 in [9] and in [10] were 8 µM and over 50 µM, respectively. The IC50 at 72 h in series [4] and in [5] was over 50 µM throughout.
On to `CC(C)[C@@H]1CC[C@]2(C(=O)O)CC[C@]3(C)[C@H](CC[C@@H]4[C@@]5(C)CCC(=O)C(C)(C)[C@@H]5CC[C@]43C)[C@@H]12` [DIHYDROBETULONIC ACID], for which the IC50 in series [1] turned out to be 11 µM; in series [2], 36 µM; in series [7], 48 µM; in series [9], 6.3 µM; in [10] it was 27 µM. The concentration for half-maximal inhibition (IC50) at 72 h in series [4] and in series [5] was over 50 µM each time.
